Source: patent publication EP4444311B1, “GI[…] TREATMENT OF CHRONIC HEPATITIS B VIRUS INFECTIONS” (priority 2021, dated 2023)
pIC50: −log10 of the molar value. Where two headings read alike, the source gives them in different places.

Legend:
[1] = test system: HepG2.2.15 cells; assay: Cytotoxicity assay (CCK-8 cell viability); assay type: cell-based, human; details: 3.12-100 µM; for HepG2.2.15 cytotoxicity: day 2 and 4 post-first exposure; for cell viabilities: day 6 post-first exposure, unrelated to ginsenoside doses, non-specific decline
Method: HepG2.2.15 cells (seeded at a density of 4 x 10^4 cells per well in 96-well plates) were cultured at 37 °C in humidified air with 5 % CO2. After cells reached 70-80 % confluence, initial screening of ginsenoside library compounds was performed with each compound added to cultured HepG2.2.15 cell at a final concentration of 50 µM. Cells were then further incubated at 37 °C under 5 % CO2. At day 4 post-first exposure of cells to each ginsenoside library compound, percentage cell viabilities were determined by CCK-8 (Dojindo Laboratories, Kumamoto, Japan) used according to manufacturer's instructions. Thereafter, cytotoxicity studies were performed with appropriate quantities of selected ginsenosides (Rg6, Rh4, or Rb3) added to cultured HepG2.2.15 cells at final concentrations of 100, 50, 25, 12.5, 6.25 or 3.12 µM. Cells were then incubated at 37 °C under 5 % CO2. At day 2, 4, and 6 post-first exposure of cells to the selected ginsenosides, percentage cell viabilities were determined by CCK-8 assay as above. Final cytotoxicity studies were performed with combinations of ginsenoside compounds (Rg6, Rh4 or Rb3) (at 80, 40, 20, 10, 5 or 2.5 µM) and LMV (at 0.08, 0.04, 0.02, 0.01, 0.005 or 0.0025 µM) respectively added to cultured HepG2.2.15 cells. Once more, cells were further incubated at 37 °C under 5 % CO2. At day 5 post-first exposure of cells to ginsenoside/LMV combinations, percentage cell viabilities were determined by CCK-8 assay once again.

[2] = test system: HBs protein (S-HBs, M-HBs, and L-HBs) mRNA; assay: Knockdown of HBs protein mRNA expression levels in HepG2.2.15 cells (RT-qPCR relative to GAPDH mRNA); assay type: cell-based, hepatitis B virus; details: for pIC50: Hepatitis B virus, read-out: Estimated IC50 values (knockdown of HBs protein mRNA expression levels); for knockdown effects on HBs protein mRNA expression levels: day 6 post-first exposure (data not shown); for knockdown HBs protein mRNA expression levels (in words): library screen, 50 µM, day 4 post-first exposure, HepG2.2.15 cells
Method: HepG2.2.15 cells (seeded at a density of 4 x 10^4 cells per well in 96-well plates) were cultured at 37 °C in humidified air with 5 % CO2. Once cells had reached confluence, initial screening of ginsenoside library compounds was performed with each compound added individually to culture media at a final concentration of 50 µM. Cells were then further incubated at 37 °C under 5 % CO2. At day 4 post-first exposure, cells were then collected to determine the percentage knockdowns of HBs protein mRNA expression levels relative to GAPDH mRNA levels (as described below).
Thereafter, more extensive studies were performed with HepG2.2.15 cells as follows. After cells were grown to confluence, as above, culture media were replaced with media containing one of the selected ginsenosides as appropriate, or else with LMV or ginsenoside/LMV combinations at the indicated concentrations. Cells were then further incubated at 37 °C under 5 % CO2. At the indicated times (at day 2, 4, or 6 post-first exposure; or at just day 5 post-first exposure), cell and culture media samples respectively were collected for subsequent detection of HBs protein mRNA expression levels or secreted HBV DNA and HBsAg levels (as described below).
RNA extraction from cells was performed using the QIAamp® Viral RNA Mini kit (Qiagen, Germany), according to manufacturer's instructions. RNA integrity was evaluated by electrophoresis on 1% agarose gels, and quantified using a ND1000 spectrophotometer (NanoDrop Technologies, Germany). Following this, extracted RNA (1 µg) was used to synthesize cDNA using a SensiFAST™ cDNA Synthesis Kit (Meridian Bioscience Inc, Cincinnati, OH, USA) according to manufacturer's instructions. RT-qPCR reactions were then performed with qPCR 2xSYBR master mix (Top-Bio, Czech Republic) on a LightCycler® real-time PCR system (Roche, Switzerland), using the indicated primers specific for amplification of HBs protein (S-HBs, M-HBs, and L-HBs) and GAPDH control mRNAs (Table 1). PCR amplification was performed on multiple RT-qPCR reaction mixtures (each 20 µl) located in individual wells of a 96-well optical-grade PCR plate, sealed with optical sealing tape (Bio-Rad Laboratories, Hercules, CA, USA). Each RT-qPCR reaction mixture comprised synthesized cDNA (2 µl) (diluted 1:1), appropriate primers (each 0.4 µl, […]), 2xSYBR green PCR master mix (10 µl) and ddH2O (7.2 µl). PCR amplification involved one cycle at 94 °C (5 min), followed by 40 cycles of denaturation at 94 °C (20 s), then annealing and extension at 57 °C for 20 s, plus 72 °C for 30 s. Finally, melting curve analyses were performed by slowly heating the PCR reaction mixtures from 65 to 95 °C, in increments of 0.5 °C every 5 s, with simultaneous measurements of the SYBR green signal intensities. Percentage knockdowns of HBs protein mRNA expression levels were determined relative to GAPDH mRNA levels using calculated 2^-ΔΔct values [Livak, K.J; Schmittgen, T.D. Analysis of relative gene expression data using real-time quantitative PCR and the 2(-Delta Delta C(T)) Method. Methods 2001, 25, 402-8]. Three biological replicates were performed for each data point where fold change (FC) ≥ 2 is considered statistically significant. Table 1. Primers for RT-qPCR detection of specific mRNAs

Row | Structure (SMILES) | HepG2.2.15 cytotoxicity [1] | cell viabilities [1] | pIC50 ([2]; HepG2.2.15, 48 h) | pIC50 ([2]; HepG2.2.15, 96 h) | knockdown effects on HBs protein mRNA expression levels [2] | knockdown HBs protein mRNA expression levels (in words) [2]
1 | C=C(CCC=C(C)C)[C@H]1CC[C@]2(C)[C@@H]1[C@H](O)C[C@@H]1[C@@]3(C)CC[C@H](O)C(C)(C)[C@@H]3[C@@H](O[C@@H]3O[C@H](CO)[C@@H](O)[C@H](O)[C@H]3O[C@@H]3O[C@@H](C)[C@H](O)[C@@H](O)[C@H]3O)C[C@]12C [Rg6] | no significant HepG2.2.15 cytotoxicity | Slightly reduced cell viabilities | 5.29 | 5.49 | wear off completely | especially effective
2 | CC(C)=CCC[C@](C)(O[C@@H]1O[C@H](CO[C@@H]2OC[C@@H](O)[C@H](O)[C@H]2O)[C@@H](O)[C@H](O)[C@H]1O)[C@H]1CC[C@]2(C)[C@@H]1[C@H](O)C[C@@H]1[C@@]3(C)CC[C@H](O[C@@H]4O[C@H](CO)[C@@H](O)[C@H](O)[C@H]4O[C@@H]4O[C@H](CO)[C@@H](O)[C@H](O)[C@H]4O)C(C)(C)[C@@H]3CC[C@]12C [Rb3] | no significant HepG2.2.15 cytotoxicity | Slightly reduced cell viabilities | 5.39 | 5.49 | wear off completely | especially effective
